Experimental data reported in US10131652B2, “Pyrimidinyloxy benzene derivatives as herbicides” (E. I. DU PONT DE NEMOURS AND COMPANY, priority 2014, dated 2018).

Assays:
Assay type in all cases: in vivo
[1] = tested on: blackgrass (Alopecurus myosuroides); experiment: Test B postemergence plant response
In short: (§1)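 Plants grown in pots of loam soil–sand blend were sprayed postemergence with formulated test chemicals at 2 to 10 cm height, one- to two-leaf stage. After about 10 days in a greenhouse, injury was visually rated against untreated controls on a 0 to 100 scale (0 no effect, 100 complete control).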

[2] = tested on: galium (catchweed bedstraw, Galium aparine); experiment: Test B postemergence plant response
In short: as §1

[3] = tested on: small-flower umbrella sedge (Cyperus difformis); experiment: Test C flooded paddy test plant response; details: Flood, 250 g ai/ha; scale of 0 to 100 where 0 is no effect and 100 is complete control; 13 to 15 days
In short: (§2)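 Greenhouse paddy assay, 13–15 days. Treatment into 3 cm floodwater over 2-leaf plants; visual 0–100 rating against controls.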

rice (Oryza sativa) = experiment: Test C flooded paddy test plant response; details: Flood, 250 g ai/ha; scale of 0 to 100 where 0 is no effect and 100 is complete control; 13 to 15 days
In short: as §2

[4] = tested on: ducksalad (Heteranthera limosa); experiment: Test C flooded paddy test plant response; details: Flood, 250 g ai/ha; scale of 0 to 100 where 0 is no effect and 100 is complete control; 13 to 15 days
In short: as §2

[5] = tested on: barnyardgrass (Echinochloa crus-galli); experiment: Test C flooded paddy test plant response; details: Flood, 250 g ai/ha; scale of 0 to 100 where 0 is no effect and 100 is complete control; 13 to 15 days
In short: as §2

[6] = tested on: pigweed (Amaranthus retroflexus); experiment: Test B pre-/postemergence plant response
In short: (§3)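 Visual injury rating, 0 (no effect) to 100 (complete control), vs untreated controls after ~10 d greenhouse. Pre: directed soil spray after planting in loam/sand. Post: plants 2–10 cm, 1–2 leaf stage. Compound in non-phytotoxic solvent plus surfactant.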

[7] = tested on: ragweed (common ragweed, Ambrosia elatior); experiment: Test B pre-/postemergence plant response
In short: as §3

[8] = tested on: Italian ryegrass (Lolium multiflorum); experiment: Test B pre-/postemergence plant response
In short: as §3

kochia (Kochia scoparia) = experiment: Test B pre-/postemergence plant response
In short: as §3

corn (Zea mays) = experiment: Test B pre-/postemergence plant response
In short: as §3

[9] = tested on: wheat (Triticum aestivum); experiment: Test B pre-/postemergence plant response
In short: as §3

[10] = tested on: barnyardgrass (Echinochloa crus-galli); experiment: Test B pre-/postemergence plant response
In short: as §3

[11] = tested on: giant foxtail (Setaria faberii); experiment: Test B pre-/postemergence plant response
In short: as §3

[12] = 125 g ai/ha, postemergence, 0 to 100 scale, 0 no effect, 100 complete control
[13] = Postemergence, 31 g ai/ha, 0 to 100 scale (0 no effect, 100 complete control)
[14] = 31 g ai/ha, Preemergence, 0 to 100 scale where 0 is no effect and 100 is complete control
[15] = Preemergence, 125 g ai/ha, 0 to 100 scale (0 no effect, 100 complete control)

CC(C)(F)c1cc(-c2ccccc2Oc2ncc(Cl)cn2)no1 [Compound 236]
Plant response rating, Blackgrass [1, 12]: 40
Plant response rating, Blackgrass [1, 13]: 20
Plant response rating, Galium [2, 12]: 100
Plant response rating, Galium [2, 13]: 30
Sedge, Umbrella plant response rating [3]: 40
Rice plant response rating (rice (Oryza sativa)): 0
Ducksalad plant response rating [4]: 75
Barnyardgrass plant response rating [5]: 0
Plant response rating, Pigweed [6, 14]: 60
Plant response rating, Pigweed [6, 12]: 70
Plant response rating, Pigweed [6, 13]: 30
Pigweed plant response rating [6, 15]: 100
Plant response rating, Ragweed [7, 14]: 0
Plant response rating, Ragweed [7, 12]: 20
Plant response rating, Ragweed [7, 13]: 0
Ragweed plant response rating [7, 15]: 0
Plant response rating, Ryegrass, Italian [8, 14]: 0
Plant response rating, Ryegrass, Italian [8, 12]: 20
Plant response rating, Ryegrass, Italian [8, 13]: 0
Ryegrass, Italian plant response rating [8, 15]: 30
Plant response rating, Kochia (kochia (Kochia scoparia); [14]): 30
Plant response rating, Kochia (kochia (Kochia scoparia); [12]): 90
Plant response rating, Kochia (kochia (Kochia scoparia); [13]): 20
Kochia plant response rating (kochia (Kochia scoparia); [15]): 100
Plant response rating, Corn (corn (Zea mays); [12]): 30
Plant response rating, Corn (corn (Zea mays); [13]): 0
Plant response rating, Wheat [9, 12]: 20
Plant response rating, Wheat [9, 13]: 0
Plant response rating, Barnyardgrass [10, 14]: 10
Plant response rating, Barnyardgrass [10, 12]: 30
Plant response rating, Barnyardgrass [10, 13]: 0
Barnyardgrass plant response rating [10, 15]: 80
Plant response rating, Foxtail, Giant [11, 14]: 10
Plant response rating, Foxtail, Giant [11, 12]: 30
Plant response rating, Foxtail, Giant [11, 13]: 0
Foxtail, Giant plant response rating [11, 15]: 90

Cn1nc(-c2ccccc2Oc2ncc(Cl)cn2)cc1C(F)(F)F [Compound 237]
Plant response rating, Blackgrass [1, 12]: 0
Plant response rating, Blackgrass [1, 13]: 0
Plant response rating, Galium [2, 12]: 0
Plant response rating, Galium [2, 13]: 0
Sedge, Umbrella plant response rating [3]: 0
Rice plant response rating (rice (Oryza sativa)): 0
Ducksalad plant response rating [4]: 0
Barnyardgrass plant response rating [5]: 0
Plant response rating, Pigweed [6, 14]: 0
Plant response rating, Pigweed [6, 12]: 0
Plant response rating, Pigweed [6, 13]: 0
Pigweed plant response rating [6, 15]: 0
Plant response rating, Ragweed [7, 14]: 0
Plant response rating, Ragweed [7, 12]: 0
Plant response rating, Ragweed [7, 13]: 0
Ragweed plant response rating [7, 15]: 0
Plant response rating, Ryegrass, Italian [8, 14]: 0
Plant response rating, Ryegrass, Italian [8, 12]: 0
Plant response rating, Ryegrass, Italian [8, 13]: 0
Ryegrass, Italian plant response rating [8, 15]: 0
Plant response rating, Kochia (kochia (Kochia scoparia); [14]): 0
Plant response rating, Kochia (kochia (Kochia scoparia); [12]): 0
Plant response rating, Kochia (kochia (Kochia scoparia); [13]): 0
Kochia plant response rating (kochia (Kochia scoparia); [15]): 0
Plant response rating, Corn (corn (Zea mays); [12]): 0
Plant response rating, Corn (corn (Zea mays); [13]): 0
Plant response rating, Wheat [9, 12]: 0
Plant response rating, Wheat [9, 13]: 0
Plant response rating, Barnyardgrass [10, 14]: 0
Plant response rating, Barnyardgrass [10, 12]: 0
Plant response rating, Barnyardgrass [10, 13]: 0
Barnyardgrass plant response rating [10, 15]: 0
Plant response rating, Foxtail, Giant [11, 14]: 0
Plant response rating, Foxtail, Giant [11, 12]: 0
Plant response rating, Foxtail, Giant [11, 13]: 0
Foxtail, Giant plant response rating [11, 15]: 0

Cc1csc(-c2c(C#N)cccc2Oc2ncc(Cl)cn2)c1 [Compound 238]
Plant response rating, Blackgrass [1, 12]: 0
Plant response rating, Blackgrass [1, 13]: 0
Plant response rating, Galium [2, 12]: 40
Plant response rating, Galium [2, 13]: 0
Sedge, Umbrella plant response rating [3]: 65
Rice plant response rating (rice (Oryza sativa)): 15
Ducksalad plant response rating [4]: 45
Barnyardgrass plant response rating [5]: 20
Plant response rating, Pigweed [6, 14]: 0
Plant response rating, Pigweed [6, 12]: 20
Plant response rating, Pigweed [6, 13]: 10
Pigweed plant response rating [6, 15]: 10
Plant response rating, Ragweed [7, 14]: 0
Plant response rating, Ragweed [7, 12]: 0
Plant response rating, Ragweed [7, 13]: 0
Ragweed plant response rating [7, 15]: 0
Plant response rating, Ryegrass, Italian [8, 14]: 0
Plant response rating, Ryegrass, Italian [8, 12]: 0
Plant response rating, Ryegrass, Italian [8, 13]: 0
Ryegrass, Italian plant response rating [8, 15]: 0
Plant response rating, Kochia (kochia (Kochia scoparia); [14]): 0
Plant response rating, Kochia (kochia (Kochia scoparia); [12]): 80
Plant response rating, Kochia (kochia (Kochia scoparia); [13]): 20
Kochia plant response rating (kochia (Kochia scoparia); [15]): 0
Plant response rating, Corn (corn (Zea mays); [12]): 20
Plant response rating, Corn (corn (Zea mays); [13]): 0
Plant response rating, Wheat [9, 12]: 0
Plant response rating, Wheat [9, 13]: 0
Plant response rating, Barnyardgrass [10, 14]: 0
Plant response rating, Barnyardgrass [10, 12]: 30
Plant response rating, Barnyardgrass [10, 13]: 0
Barnyardgrass plant response rating [10, 15]: 40
Plant response rating, Foxtail, Giant [11, 14]: 0
Plant response rating, Foxtail, Giant [11, 12]: 10
Plant response rating, Foxtail, Giant [11, 13]: 0
Foxtail, Giant plant response rating [11, 15]: 20

FC(F)c1ccc(-c2ccccc2Oc2ncc(Cl)cn2)o1 [Compound 239]
Plant response rating, Blackgrass [1, 12]: 0
Plant response rating, Blackgrass [1, 13]: 0
Plant response rating, Galium [2, 12]: 0
Plant response rating, Galium [2, 13]: 0
Sedge, Umbrella plant response rating [3]: 0
Rice plant response rating (rice (Oryza sativa)): 0
Ducksalad plant response rating [4]: 0
Barnyardgrass plant response rating [5]: 0
Plant response rating, Pigweed [6, 14]: 0
Plant response rating, Pigweed [6, 12]: 20
Plant response rating, Pigweed [6, 13]: 0
Pigweed plant response rating [6, 15]: 0
Plant response rating, Ragweed [7, 14]: 0
Plant response rating, Ragweed [7, 12]: 0
Plant response rating, Ragweed [7, 13]: 0
Ragweed plant response rating [7, 15]: 0
Plant response rating, Ryegrass, Italian [8, 14]: 0
Plant response rating, Ryegrass, Italian [8, 12]: 0
Plant response rating, Ryegrass, Italian [8, 13]: 0
Ryegrass, Italian plant response rating [8, 15]: 0
Plant response rating, Kochia (kochia (Kochia scoparia); [14]): 0
Plant response rating, Kochia (kochia (Kochia scoparia); [12]): 0
Plant response rating, Kochia (kochia (Kochia scoparia); [13]): 0
Kochia plant response rating (kochia (Kochia scoparia); [15]): 0
Plant response rating, Corn (corn (Zea mays); [12]): 20
Plant response rating, Corn (corn (Zea mays); [13]): 0
Plant response rating, Wheat [9, 12]: 0
Plant response rating, Wheat [9, 13]: 0
Plant response rating, Barnyardgrass [10, 14]: 0
Plant response rating, Barnyardgrass [10, 12]: 0
Plant response rating, Barnyardgrass [10, 13]: 0
Barnyardgrass plant response rating [10, 15]: 0
Plant response rating, Foxtail, Giant [11, 14]: 0
Plant response rating, Foxtail, Giant [11, 12]: 0
Plant response rating, Foxtail, Giant [11, 13]: 0
Foxtail, Giant plant response rating [11, 15]: 0
